# According to patent US12258337B2, “Bicyclic CX3CR1 receptor agonists” (Board of Regents, The University of Texas System, priority 2019, dated 2025):
# How the values were obtained:
# Type in all cases: cell-based
# [1] = target: T1, mCX3CR1 (Mus musculus, UniProt Q9Z0D9); experiment: Ga16 assay, CX3CR1 agonism, Ca2+ sensitive photo-protein readout (FLIPRTETRA); conditions: mouse CX3CR1 cell line
# T1 construct: expressed in transfected cells; stably expresses a Ca2+ sensitive photo-protein
# T1 sequence (Q9Z0D9 1-354): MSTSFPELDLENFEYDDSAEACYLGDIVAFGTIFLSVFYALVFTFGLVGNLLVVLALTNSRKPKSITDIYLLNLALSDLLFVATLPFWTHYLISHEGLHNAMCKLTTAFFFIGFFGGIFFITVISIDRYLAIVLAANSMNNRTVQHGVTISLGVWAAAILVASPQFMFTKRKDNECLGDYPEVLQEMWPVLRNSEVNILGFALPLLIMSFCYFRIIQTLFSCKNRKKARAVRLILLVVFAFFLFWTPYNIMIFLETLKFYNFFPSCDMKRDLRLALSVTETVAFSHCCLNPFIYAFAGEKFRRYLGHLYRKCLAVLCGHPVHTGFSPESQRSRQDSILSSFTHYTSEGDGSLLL
# Method: (§1) Compounds (as well as stereoisomer(s) thereof and/or salt(s) thereof) were tested for CX3CR1 agonism in a cell based assay with fluorescent readout in Agonist Mode in dose response in quadruplicate with intra-plate modality).
# (§2) Buffers and reagents. PBS (D-PBS without calcium and magnesium; EuroClone); Trypsin (Trypsin 0.05%, EDTA 0.02% in PBS; EuroClone); DMSO (Sigma); Standard tyrode buffer: in-house solution (130 mM NaCl, 5 mM KCl, 2 mM CaCl2), 1 mM MgCl2, 5 mM NaHCO3, 20 mM HEPES in water at pH 7.4; sterile filtered); Coelenterazine, native (Biosynth); stock 10 mM; Agonist: Recombinant Human Fractalkine (CX3CL1) (PeproTech); stock: 10 μM in standard tyrode buffer+BSA 0.1%; stored at −20° C.
# (§3) Cell line. Human (hCX3CR1), mouse (mCX3CR1), and rat (rCX3CR1) were used for the assay.
# (§4) Assay protocol. Experiments ere performed in 384 MTP format. Cells were seeded at 7,500 cells/well in 25 μl/well complete growth medium without selection antibiotics in 384-well plates. Twenty-four hours later, cells ere assayed for the response to various compounds using the Ca^2+ sensitive photo-protein stably expressed in the cells as readout.
# (§5) The experiment was performed in a 384-well format according to the following procedure: • 24h after seeding, pre-incubate the cells at room temperature for 1 hour. • Then remove the culture medium. • Load cells with 20 μL/well of standard tyrode buffer+10 μM ceolenterazine. • Incubate cell plates for 3 hours at RT. • Inject 10 μL/w of 3× concentrated test compounds and controls in assay buffer at the FLIPRTETRA and monitor the kinetic response over a period of 90 seconds.
# (§6) Data from FLIPRTETRA measurements were analyzed with the Genedata Screener© software. The following examples are meant to illustrate, but in no way to limit, the claimed invention.
# [2] = target: T2, rCX3CR1 (Rattus norvegicus, UniProt P35411); experiment: as above; conditions: rat CX3CR1 cell line
# T2 construct: expressed in transfected cells; stably expresses a Ca2+ sensitive photo-protein
# T2 sequence (P35411 1-354): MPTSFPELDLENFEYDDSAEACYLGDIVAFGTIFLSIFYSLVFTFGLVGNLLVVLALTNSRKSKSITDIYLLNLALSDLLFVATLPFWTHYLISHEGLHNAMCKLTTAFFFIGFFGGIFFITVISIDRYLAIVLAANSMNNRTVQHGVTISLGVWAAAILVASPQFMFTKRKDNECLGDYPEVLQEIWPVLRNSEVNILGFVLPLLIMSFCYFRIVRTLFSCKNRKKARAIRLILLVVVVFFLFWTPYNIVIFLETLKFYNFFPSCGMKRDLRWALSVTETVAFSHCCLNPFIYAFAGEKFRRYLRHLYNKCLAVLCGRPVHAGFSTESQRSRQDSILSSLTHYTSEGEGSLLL
# Method: as §1, §2, §3, §4, §5, §6
# [3] = target: T3, hCX3CR1 (Homo sapiens, UniProt P49238); experiment: Suchi5 assay (HEK/NatClytin/CNG/Suchi5 transiently transfected hCX3CR1, Fluo-8 Ca2+ readout); set-up: expressed in transfected cells; stably expresses a Ca2+ sensitive photo-protein; conditions: Suchi5 assay, HEK/NatClytin/CNG/Suchi5 transfected with hCX3CR1; read-out: hCX3CR1 agonism EC50
# T3 sequence (P49238 1-355): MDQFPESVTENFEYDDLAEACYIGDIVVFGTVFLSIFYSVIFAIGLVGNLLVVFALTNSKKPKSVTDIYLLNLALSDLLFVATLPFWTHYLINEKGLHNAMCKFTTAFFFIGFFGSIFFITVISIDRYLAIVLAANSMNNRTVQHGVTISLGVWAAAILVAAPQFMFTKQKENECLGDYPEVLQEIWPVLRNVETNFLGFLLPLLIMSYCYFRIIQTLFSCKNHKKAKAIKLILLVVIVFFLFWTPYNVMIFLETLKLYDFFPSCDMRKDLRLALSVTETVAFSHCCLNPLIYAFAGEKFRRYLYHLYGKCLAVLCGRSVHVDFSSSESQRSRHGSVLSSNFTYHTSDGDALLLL
# Method: Buffers and reagents. PBS (D-PBS without calcium and magnesium; EuroClone); Trypsin (Trypsin 0.05%, EDTA 0.02% in PBS; EuroClone); Opti-MEM medium (Thermo Fisher); DMSO (Sigma); Standard tyrode buffer: in-house solution (130 mM NaCl, 5 mM KCl, 2 mM CaCl2), 1 mM MgCl2, 5 mM NaHCO3, 20 mM HEPES in water at pH 7.4; sterile filtered); Screen Quest™ Fluo-8 No Wash Calcium Assay Kit (AAt Bioquest®); Lipofectamine® 2000 Reagent (Thermo Fisher); Agonist: Recombinant Human Fractalkine (CX3CL1) (PeproTech); stock: 10 μM in standard Tyrode buffer/BSA 01%; stored at −20° C.
# Cell line. The final cell line for CX3CR1-Suchi5 assay is HEK/NatClytin/CNG/Suchi5 transiently transfected hCX3CR1 cDNA. In this cell line native Gαi signaling is switched to Gαq pathway thanks to the overexpression of a Gαiq chimeric G protein (called Suchi5) to direct Gαi activation towards Ca^2+ release for measurement.
# Assay protocol. Experiments are performed in 384 MTP format. Transiently transfected cells are seeded at 20,000 cells/well in 25 μl/well Opti-MEM medium without selection antibiotics in 384-well plates. 4-5-hours later 25 μL/well of complete medium with 20% of FBS are added to the cells. Twenty-four hours later, cells are assayed for the response to various compounds using a fluorescent Ca^2+ sensitive dye (FLUO8-No Wash Dye) as readout.
# The experiment is performed in a 384-well format according to the following procedure: • 24h after seeding, remove the culture medium. • Load cells with 20 μL/well of 0.5X FLUO-8 No Wash Dye diluted in assay buffer. • Incubate cell plates for 1 hour at RT. • Inject 10 μL/w of 3× concentrated test compounds and controls in assay buffer at the FLIPRTETRA and monitor the kinetic response over a period of 90 seconds.
# Data from FLIPRTETRA measurements are analyzed with the Genedata Screener© software.
# [4] = target: T3, hCX3CR1; experiment: Ga16 assay, CX3CR1 agonism, Ca2+ sensitive photo-protein readout (FLIPRTETRA); set-up: expressed in transfected cells; stably expresses a Ca2+ sensitive photo-protein; conditions: human CX3CR1 cell line
# Method: as §1, §2, §3, §4, §5, §6
Compound,EC50 [1] [µM],EC50 [2] [µM],EC50 [3] [µM],EC50 [4] [µM]
"CC1(O)CCCN(CC2(CNC(=O)c3cc4c(s3)CCCCCC4)CCC2)C1 (centres unmarked) [Example 59, N-[[1-[(3-hydroxy-3-methylpiperidin-1-yl)methyl]cyclobutyl]methyl]-4,5,6,7,8,9-hexahydrocycloocta[b]thiophene-2-carboxamide]",9,9.2,1,11.9
"O=C(NCC1(CN2CCC(O)C2)CCCC1)c1cc2c(s1)CCCCCC2 (single isomer, unassigned) [Example 64, N-[[1-[(3-hydroxypyrrolidin-1-yl)methyl]cyclopentyl]methyl]-4,5,6,7,8,9-hexahydrocycloocta[b]thiophene-2-carboxamide]",13.7,9.1,8.7,10.2
"O=C(NCC1(CN2CCC(O)C2)CCC1)c1cc2c(s1)CCCCCC2 (centres unmarked) [Example 66, N-[[1-[(3-hydroxypyrrolidin-1-yl)methyl]cyclobutyl]methyl]-4,5,6,7,8,9-hexahydrocycloocta[b]thiophene-2-carboxamide]",20.4,11.4,7.2,16
"COC1(C)CCN(CC2(CNC(=O)c3cc4c(s3)CCCCCC4)CCCC2)CC1 [Example 53, N-[[1-[(4-methoxy-4-methylpiperidin-1-yl)methyl]cyclopentyl]methyl]-4,5,6,7,8,9-hexahydrocycloocta[b]thiophene-2-carboxamide]",48.6,33.7,11.8,8.6
"CC(C)OC1CCCN(CC2(CNC(=O)c3cc4c(s3)CCCCCC4)CCC2)C1 (centres unmarked) [Example 50, N-[[1-[(3-propan-2-yloxypiperidin-1-yl)methyl]cyclobutyl]methyl]-4,5,6,7,8,9-hexahydrocycloocta[b]thiophene-2-carboxamide]",45.7,43.5,16.1,15.8
"COC1CCN(CC2(CNC(=O)c3cc4c(s3)CCCCCC4)CCC2)CC1 [Example 49, N-[[1-[(4-methoxypiperidin-1-yl)methyl]cyclobutyl]methyl]-4,5,6,7,8,9-hexahydrocycloocta[b]thiophene-2-carboxamide]",8.7,6.6,8.9,10
"O=C(NCC1(CN2CCCC(O)C2)CCC1)c1cc2c(s1)CCCCCC2 (centres unmarked) [Example 65, N-[[1-[(3-hydroxypiperidin-1-yl)methyl]cyclobutyl]methyl]-4,5,6,7,8,9-hexahydrocycloocta[b]thiophene-2-carboxamide]",9.2,7.4,8.2,6
"COC1CCN(CC(C)(C)CNC(=O)c2cc3c(s2)CCCCCC3)CC1 [Example 47, N-[3-(4-methoxypiperidin-1-yl)-2,2-dimethylpropyl]-4,5,6,7,8,9-hexahydrocycloocta[b]thiophene-2-carboxamide]",71.5,19.8,16.4,12.6
"O=C(NCC1(CN2CCC(O)CC2)CCC1)c1cc2c(s1)CCCCCC2 [Example 41, N-[[1-[(4-hydroxypiperidin-1-yl)methyl]cyclobutyl]methyl]-4,5,6,7,8,9-hexahydrocycloocta[b]thiophene-2-carboxamide]",9.4,7.4,2.5,8.6
"O=C(NCC1(CN2CCC(O)CC2)CCCOC1)c1cc2c(s1)CCCCCC2 (centres unmarked) [Example 45, N-[[3-[(4-hydroxypiperidin-1-yl)methyl]oxan-3-yl]methyl]-4,5,6,7,8,9-hexahydrocycloocta[b]thiophene-2-carboxamide]",41.6,18.7,14.1,14.3
"CC(C)OC1CCN(CC2(CNC(=O)c3cc4c(s3)CCCCCC4)CCC2)CC1 [Example 51, N-[[1-[(4-propan-2-yloxypiperidin-1-yl)methyl]cyclobutyl]methyl]-4,5,6,7,8,9-hexahydrocycloocta[b]thiophene-2-carboxamide]",15.4,34.8,18.4,15.7
"CC1(C)CN(CC2(CNC(=O)c3cc4c(s3)CCCCCC4)CCC2)CCC1O (centres unmarked) [Example 58, N-[[1-[(4-hydroxy-3,3-dimethylpiperidin-1-yl)methyl]cyclobutyl]methyl]-4,5,6,7,8,9-hexahydrocycloocta[b]thiophene-2-carboxamide]",19.1,16.8,5,21.9
"O=C(NCC1(CN2CCC(O)C2)CCCC1)c1cc2c(s1)CCCCCC2 (single isomer, unassigned) [Example 63, N-[[1-[(3-hydroxypyrrolidin-1-yl)methyl]cyclopentyl]methyl]-4,5,6,7,8,9-hexahydrocycloocta[b]thiophene-2-carboxamide]",13.5,9.7,9.6,9.8
"CC1(O)CCCN(CC2(CNC(=O)c3cc4c(s3)CCCCCC4)CCCC2)C1 (centres unmarked) [Example 52, N-[[1-[(3-hydroxy-3-methylpiperidin-1-yl)methyl]cyclopentyl]methyl]-4,5,6,7,8,9-hexahydrocycloocta[b]thiophene-2-carboxamide]",25.1,19.4,8.4,19.4
